Data published in US20100009920A1, “TTK AS TUMOR MARKER AND THERAPEUTIC TARGET FOR LUNG CANCER” (priority 2006, published 2010).
Entries after “also recorded” stand apart in the source; their conditions may differ.

Assays:
[1] = tested on: A549 cells; experiment: Microscopic observation of cell morphology (phase contrast images); assay type: cell-based, human; conditions: non-treated cells as control
Protocol: (§1) The oligo-siRNAs (Dharmacon, Inc., Lafayette, Colo.) ([…]) were transfected into appropriate lung-cancer cell lines using 30 micro-1 of Lipofectamine 2000 (Invitrogen, Carlsbad, Calif.) following the manufacturer's protocol. The ribonucleotide sequences corresponding to following sequences were used as the oligo-siRNA.
The endogenous association between TTK and EGFR in lung cancer cells was also investigated by immunoprecipitaion experiment using extracts from A549 cells, and the interaction between these two proteins regardless the EGF-stimulation was detected (FIG. 4b). To further examine the relevance of TTK to EGFR signaling, TTK or EGFR function in A549 cells were suppressed and cell morphology was microscopically observed.

[2] = tested on: catalytically-active recombinant GST-tagged human EGFR (active-rhEGFR); experiment: In vitro kinase assay, autophosphorylation of active-rhEGFR (western blot with anti-phospho-tyrosine antibodies); assay type: biochemical; conditions: in the presence of ATP, no recombinant TTK
[3] = tested on: TTK; experiment: In vitro kinase assay, phosphorylation of active-rhEGFR by recombinant TTK; assay type: biochemical, human; conditions: active-rhEGFR pre-treated with inhibitor, recombinant TTK present
Description: The full-length cDNA of TTK was subcloned into pFastBac HT vector. The recombinant shuttle vector was transformed into the baculovirus genome (bacmid DNA) in DH10Bac competent cells (Invitrogen) by using Tn7 site-specific transposition according to the minufacture's instructions for the Bac-to-Bac expression system (Invitrogen). The recombinant bacmid DNA was isolated, purified, transfected into Sf9 cells (Invitrogen) (recombinant baculovirus), and used for next infection. Log-phase Sf-9 cells were infected with recombinant baculovirus at a multiplicity of infection (MOI) of 1, and then infected Sf-9 cells were grown in suspension at 27° C. for 72 hours. Extracts of Sf-9 cells were collected and the His fusion proteins were purified using HiTrap HP column (GE Healthcare Bio-sciences) using standard protocols. […] TTK-KD was cloned into pGEX6T vector (GE Healthcare Bio-sciences). GST fusion protein was expressed in E. coli stain BL21 and purified by Glutathione Sepharose 4B (GE Healthcare Bio-sciences) using standard protocols. […]
The EGFR tyrosine phosphorylation sites were further evaluated by TTK using GST-tagged proteins containing various cytoplasmic region of EGFR as substrates (EGFR-DEL1, −DEL2, and −DEL3; FIG. 4e). […]

[4] = tested on: A549 cells; experiment: MTT assay of A549 cells treated with cell-permeable 11R-EGFR peptides; assay type: cell-based, human; conditions: A549 cells, 2.5, 5 and 7.5 micro-mol/L, 5 days
Protocol: 17˜31 amino acid peptide sequences corresponding to a part of EGFR protein that contained possible TTK-interacting region were covalently linked at its NH2 terminus to a membrane transducing 11 poly-arginine sequence (Hayama, S, et al. Cancer Res. 66, 10339-48 (2006), Futaki S, et al. J Biol. Chem. 276, 5836-5840 (2001)). Three cell-permeable peptides were synthesized:
Peptides were purified by preparative reverse-phase high-pressure liquid chromatography. A549 cells were incubated with the 11R peptides at the concentration of 2.5, 5, and 7.5 micro-mol/L for 5 days. The medium was exchanged at every 48 hours at the appropriate concentrations of each peptide and the viability of cells was evaluated by MTT assay at 5 days after the treatment.

[5] = tested on: LC319 and A549 cells; experiment: MTT and colony-formation assays after transfection of siRNA-expression plasmids; assay type: cell-based, human
Protocol: (§2) A vector-based RNA interference (RNAi) system, psiH1BX3.0, had previously established to direct the synthesis of siRNAs in mammalian cells (Suzuki et al., 2003, 2005; Kato et al, 2005; Furukawa et al, 2005). 10 micro-g of siRNA-expression vector were transfected into NSCLC cell lines LC319 and A549 both of which over-expressed TTK endogenously, using 30 micro-1 of Lipofectamine 2000 (Invitrogen). The transfected cells were cultured for five days in the presence of appropriate concentrations of geneticin (G418), after which cell numbers and viability were measured by Giemsa staining and triplicate MTT assays. The target sequences of the synthetic oligonucleotides for RNAi were as follows: control 1 (Luciferase: Photinus pyralis luciferase gene), 5′-CGTACGCGGAATACTTCGA-3′ (SEQ ID NO: 9); control 2 (Scramble: chloroplast Euglena gracilis gene coding for 5S and 16S rRNAs),

[6] = tested on: TTK; experiment: Semiquantitative RT-PCR of TTK expression after transfection of siRNA-expression plasmids; assay type: cell-based, human; conditions: LC319 and A549 cells, versus control siRNAs (LUC, SCR)
Protocol: Total RNA was extracted from cultured cells and clinical tissues using Trizol reagent (Life Technologies, Inc.) according to the manufacturer's protocol. Extracted RNAs and normal human tissue poly(A) RNAs were treated with DNase I (Nippon Gene) and were reverse-transcribed using oligo(dT)20 primer and SuperScript II reverse transcriptase (Invitrogen). Semiquantitative RT-PCR experiments were carried out with the following synthesized gene-specific primers or with beta-actin (ACTB)-specific primers as an internal control: TTK,
as §2, with “The target sequences of the synthetic oligonucleotides for RNAi were as follows: control 1 (Luciferase: Photinus pyralis luciferase gene), 5′-CGTACGCGGAATACTTCGA-3′ (SEQ ID NO: 9); control 2 (Scramble: chloroplast Euglena gracilis gene coding for 5S and 16S rRNAs),” left out

[7] = tested on: HEK293 cells; experiment: Matrigel invasion assay of TTK- or mock-stable transfectants of HEK293 transfected with RNAi-EGFR; assay type: cell-based
[8] = tested on: HEK293 cells; experiment: MTT assay of TTK- or mock-stable transfectants of HEK293 transfected with RNAi-EGFR; assay type: cell-based
Protocol: as §1
TTK-expressing stable transfectants were established according to a standard protocol. Using FuGENE 6 Transfection Reagent (Roche Diagnostics), we transfected HEK293 and NIH3T3 cells with plasmids expressing TTK (pCAGGS-n3FH-TTK) or mock plasmids (pCAGGS-n3FH). Transfected cells were cultured in DMEM containing 10% FCS and G418, then individual colonies were trypsinized and screened for stable transfectants by a limiting-dilution assay. Expression of TTK was determined in each clone by RT-PCR, western blotting, and immunostaining. HEK293 or NIH3T3 transfectants that stably expressed TTK were seeded onto 6-well plates (5×10^4 cells/well), and maintained in medium containing 10% FCS and 0.4 mg/ml G418 for 7 days. At each time point, cell proliferation was evaluated by the MTT assay using Cell Counting Kits (WAKO). All experiments were done in triplicate.

Compound: COc1cc2ncnc(Nc3cccc(Cl)c3)c2cc1OC [AG1478, tryphostin 4-(3-chloroanilino)-6,7-dimethoxyquinazoline]
- cell morphology [1]: became much larger with multiple nuclei
- autophosphorylation of active-rhEGFR on tyrosine [2]: inhibited
- autophosphorylation of active-rhEGFR on tyrosine ([2]; listed as AG1378): not detected
- phosphorylation of active-rhEGFR by TTK [3]: not inhibited
- phosphorylation of active-rhEGFR by TTK ([3]; listed as AG1378): detected in the presence of recombinant TTK

Compound: RRRRRRRRRRR-GGG-FRELIIEFSKMARDPQRYL (An artificially synthesised dominant negative peptide) [11R-EGFR937-955]
- cell viability (MTT assay) [4]: most effective; also recorded: significant decreases

Compound: 5′-ACAGTGTTCCGCTAAGTGA-3′ [si-TTK-1]
- cell viability (MTT assay) ([5]; versus two control siRNAs): reduced significantly
- colony numbers (colony-formation assay) ([5]; versus two control siRNAs): reduced significantly
- amount of TTK transcript [6]: significantly decreased

Compound: GTAACAAGCTCACGCAGTTTT (listed as DNA, chemistry not given here) [RNAi-EGFR (oligo)]
- cell morphology [1]: became much larger with multiple nuclei
- TTK-induced cell invasion through Matrigel ([7]; TTK-transfected HEK293 cells, P<0.0001): reduced to near the basal level
- Invasion of the control cells through Matrigel ([7]; mock-transfected HEK293 cells): slightly reduced
- TTK-induced cell proliferation ([8]; HEK293 transfectants stably expressing TTK, P=0.0032): significantly reduced
- proliferation of HEK293 control cells ([8]; control cells transfected with mock vector, P=0.2439): scarcely reduced

Compound: RRRRRRRRRRR-GGG-DVYMIMVKCWMIDADSRPK (An artificially synthesised dominant negative peptide) [11R-EGFR918-936]
- cell viability (MTT assay) [4]: significant decreases

Compound: 5′-ATCACGGACCAGTACATCT-3′ [si-TTK-2]
- growth-suppressive effect [5]: modest growth-suppressive effect
- amount of TTK transcript [6]: weaker reduction

Compound: RRRRRRRRRRR-GGG-ISSILEKGERLPQPPICTI (An artificially synthesised dominant negative peptide) [11R-EGFR899-917]
- cell viability (MTT assay) [4]: significant decreases

Compound: RRRRRRRRRRR-GGG-EFMAELLRYFRPQSKRDII (RRRRRRRRRRRGGGEFMAELLRYFRPQSKRDII) [scramble peptides, Scramble peptides derived from 11R-EGFR937-955, synthesized as a control, reference compound]
- cell viability (MTT assay) [4]: no growth-suppressive effect
